In ChEMBL document CHEMBL5126521, “Analgesic Opioid Ligand Discovery Based on Nonmorphinan Scaffolds Derived from Natural Sources” (J Med Chem, 2022):
pEC50, pIC50, pKi: −log10 of the molar value. One block for each compound: values may come before it. Bridge positions count the residues as written; N and C are the ends. Square brackets hold non-standard residues; d marks the D form. Peptide text beside a SMILES is read from it.

Assays:
[1] = Stability in rat brain homogenate assessed as compound remaining measured after 90 mins relative to control; format: ADME, tissue-based; details: read-out: Stability
[2] = system: Mus musculus; test: Antinociceptive activity in Swiss albino mouse assessed tail flick response in warm water administered icv; format: functional
[3] = molecular target: Mu-type opioid receptor (Rattus norvegicus, UniProt P33535); test: Inhibition of Wistar rat brain membrane MOP; format: cell membranes
Chain of Mu-type opioid receptor (Rattus norvegicus, UniProt P33535) (P33535 whole entry): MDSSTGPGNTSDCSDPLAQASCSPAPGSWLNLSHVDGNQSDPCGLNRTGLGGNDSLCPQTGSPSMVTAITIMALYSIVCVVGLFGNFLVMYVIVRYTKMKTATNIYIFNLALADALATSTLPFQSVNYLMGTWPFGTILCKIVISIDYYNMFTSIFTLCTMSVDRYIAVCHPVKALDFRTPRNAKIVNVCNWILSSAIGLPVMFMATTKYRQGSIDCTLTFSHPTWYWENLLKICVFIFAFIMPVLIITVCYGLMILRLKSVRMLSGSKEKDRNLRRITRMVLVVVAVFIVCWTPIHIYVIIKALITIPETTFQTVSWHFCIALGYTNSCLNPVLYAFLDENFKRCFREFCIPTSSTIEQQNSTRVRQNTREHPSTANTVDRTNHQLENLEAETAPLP

[4] = molecular target: Delta-type opioid receptor (Rattus norvegicus, UniProt P33533); test: Inhibition of Wistar rat brain membrane DOP; format: cell membranes
Chain of Delta-type opioid receptor (Rattus norvegicus, UniProt P33533) (P33533 whole entry): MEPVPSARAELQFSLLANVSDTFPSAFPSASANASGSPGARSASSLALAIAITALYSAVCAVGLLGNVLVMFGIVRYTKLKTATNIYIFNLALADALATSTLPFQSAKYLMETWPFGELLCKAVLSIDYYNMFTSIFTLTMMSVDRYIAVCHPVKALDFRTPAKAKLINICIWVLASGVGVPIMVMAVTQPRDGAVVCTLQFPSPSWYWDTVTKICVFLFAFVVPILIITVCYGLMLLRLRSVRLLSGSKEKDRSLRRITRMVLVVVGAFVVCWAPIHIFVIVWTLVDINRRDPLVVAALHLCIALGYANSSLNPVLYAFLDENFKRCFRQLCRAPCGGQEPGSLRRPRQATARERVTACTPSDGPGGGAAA

[5] = molecular target: T1, Mu-type opioid receptor (Homo sapiens, UniProt P35372); test: Agonist activity at human recombinant MOP expressed in CHO cells by calcium mobilization assay; format: functional, cell-based
T1 sequence (P35372 whole entry): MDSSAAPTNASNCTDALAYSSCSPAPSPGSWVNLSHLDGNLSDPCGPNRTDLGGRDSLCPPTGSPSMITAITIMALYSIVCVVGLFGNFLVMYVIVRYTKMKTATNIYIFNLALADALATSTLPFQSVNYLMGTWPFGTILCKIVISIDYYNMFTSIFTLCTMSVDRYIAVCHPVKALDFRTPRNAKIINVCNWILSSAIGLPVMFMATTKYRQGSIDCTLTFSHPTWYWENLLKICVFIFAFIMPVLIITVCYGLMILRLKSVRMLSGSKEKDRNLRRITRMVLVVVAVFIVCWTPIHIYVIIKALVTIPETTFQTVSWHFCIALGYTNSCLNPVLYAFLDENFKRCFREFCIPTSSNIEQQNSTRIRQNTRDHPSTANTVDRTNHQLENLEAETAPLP

[6] = molecular target: T1, Mu-type opioid receptor; test: Agonist activity at MOP (unknown origin) stably expressed in HEK293 cells assessed as forskolin stimulated cAMP accumulation incubated for 30 mins by radioactivity based scintillation counter analysis; format: functional, cell-based
[7] = molecular target: T1, Mu-type opioid receptor; test: Displacement of [3H]DAMGO from MOP (unknown origin) stably expressed in HEK293 cells by liquid scintillation counter analysis; format: cell-based
[8] = molecular target: T2, Delta-type opioid receptor (Homo sapiens, UniProt P41143); test: Displacement of [3H]DPDPE from DOP (unknown origin) stably expressed in HEK293 cells by liquid scintillation counter analysis; format: cell-based
T2 sequence (P41143 whole entry): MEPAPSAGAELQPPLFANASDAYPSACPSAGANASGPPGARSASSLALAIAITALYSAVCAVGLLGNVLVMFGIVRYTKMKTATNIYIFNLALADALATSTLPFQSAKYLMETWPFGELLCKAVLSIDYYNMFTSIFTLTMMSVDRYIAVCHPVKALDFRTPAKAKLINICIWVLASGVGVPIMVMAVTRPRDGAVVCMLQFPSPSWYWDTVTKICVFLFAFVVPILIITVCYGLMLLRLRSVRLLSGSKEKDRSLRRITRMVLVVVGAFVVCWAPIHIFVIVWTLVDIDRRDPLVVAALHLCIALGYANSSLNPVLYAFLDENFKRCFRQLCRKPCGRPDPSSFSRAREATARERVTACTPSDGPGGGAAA

[9] = molecular target: T1, Mu-type opioid receptor; test: Agonist activity at MOP (unknown origin) stably expressed in HEK293 cells assessed as forskolin stimulated cAMP accumulation incubated for 30 mins by radioactivity based scintillation counter analysis relative to control; format: functional, cell-based; details: filed as agonist
[10] = molecular target: Mu-type opioid receptor (Cavia porcellus, UniProt P97266); test: Antagonist activity at guinea pig ileum MOP; format: functional, tissue-based
Chain of Mu-type opioid receptor (Cavia porcellus, UniProt P97266) (P97266 whole entry): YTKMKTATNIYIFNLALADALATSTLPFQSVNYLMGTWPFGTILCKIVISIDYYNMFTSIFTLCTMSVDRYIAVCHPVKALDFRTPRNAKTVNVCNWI

[11] = molecular target: Mu-type opioid receptor (Mus musculus, UniProt P42866); test: Antagonist activity at mouse vas deferns MOP; format: functional
Chain of Mu-type opioid receptor (Mus musculus, UniProt P42866) (P42866 whole entry): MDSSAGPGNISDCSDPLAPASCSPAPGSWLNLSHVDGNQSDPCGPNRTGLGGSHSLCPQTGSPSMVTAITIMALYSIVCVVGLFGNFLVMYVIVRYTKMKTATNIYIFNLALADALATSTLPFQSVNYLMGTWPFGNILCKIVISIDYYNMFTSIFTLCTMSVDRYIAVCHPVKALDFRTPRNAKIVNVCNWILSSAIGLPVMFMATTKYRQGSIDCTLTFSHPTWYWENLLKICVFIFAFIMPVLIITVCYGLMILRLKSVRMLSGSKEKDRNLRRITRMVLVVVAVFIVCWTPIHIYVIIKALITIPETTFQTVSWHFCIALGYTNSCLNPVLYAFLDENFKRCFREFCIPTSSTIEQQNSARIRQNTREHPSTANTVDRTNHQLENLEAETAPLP

[12] = Stability in mouse brain homogenate assessed as half life; format: ADME, tissue-based
[13] = Stability in mouse serum assessed as half life; format: ADME, cell-free
[14] = molecular target: T1, Mu-type opioid receptor; test: Binding affinity to MOP (unknown origin)
[15] = molecular target: T2, Delta-type opioid receptor; test: Binding affinity to DOP (unknown origin)

Structure (SMILES): NC(=O)[C@@H]1CC(=O)NCCCC[C@@H](NC(=O)[C@@H](N)Cc2ccc(O)cc2)C(=O)N[C@@H](c2ccc(F)cc2F)C(=O)N[C@@H](c2ccccc2)C(=O)N1
remaining at […] [1]: 93%

Structure (SMILES): Cc1cc(O)cc(C)c1C[C@H](N)C(=O)N[C@@H]1CCCCNC(=O)C[C@@H](C(N)=O)NC(=O)[C@H](c2ccc(C(F)(F)F)cc2)NC(=O)[C@H](c2ccccc2)NC1=O
remaining at […] [1]: 93%

Structure (SMILES): Cc1ccc([C@@H]2NC(=O)[C@H](NC(=O)[C@@H](N)Cc3c(C)cc(O)cc3C)CCCCNC(=O)C[C@@H](C(N)=O)NC(=O)[C@H](c3ccccc3)NC2=O)cc1
ED50 [2]: 0.39 µg | pIC50 [3]: 8.84 | pIC50 [4]: 6.81 | pEC50 [5]: 8.55 | remaining at […] [1]: 85%

Structure (SMILES): C=C(C(N)=O)[C@@H](NC(=O)[C@H](Cc1ccccc1)NC(=O)[C@@H](C)N(C)C(=O)[C@@H](N)Cc1ccc(O)cc1)c1ccccc1
pEC50 [6]: 8.36 | pKi [7]: 9.21 | pKi [8]: 5.37 | Emax [9]: 80.4%

Structure (SMILES): C[C@@H](NC(=O)[C@@H](N)Cc1ccc(O)cc1)C(=O)N[C@@H](Cc1ccccc1)C(=O)NCC(=O)N[C@@H](Cc1ccc(O)cc1)C(=O)N1CCC[C@H]1C(=O)N[C@@H](CO)C(N)=O
pIC50 [10]: < 5.40 | pIC50 [11]: < 4.82

Structure (SMILES): Cc1ccccc1[C@@H]1NC(=O)[C@H](NC(=O)[C@@H](N)Cc2c(C)cc(O)cc2C)CCCCNC(=O)C[C@@H](C(N)=O)NC(=O)[C@H](c2ccccc2)NC1=O
ED50 [2]: 0.03 µg | pIC50 [3]: 8.96 | pIC50 [4]: 6.70 | pEC50 [5]: 8.25 | remaining at […] [1]: 85%

Structure (SMILES): C=C(C(N)=O)[C@@H](NC(=O)[C@H](Cc1c[nH]c2ccccc12)NC(=O)[C@@H](C)N(C)C(=O)[C@@H](N)Cc1c(C)cc(O)cc1C)c1ccccc1
half-life [12]: ≥ 300 min | pEC50 [6]: 11.40 | pKi [7]: 10.49 | pKi [8]: 7.43 | Emax [9]: 98.1% | half-life [13]: ≥ 300 min

Structure (SMILES): NC(=O)[C@@H]1CC(=O)NCCCC[C@@H](NC(=O)[C@@H](N)Cc2ccc(O)cc2)C(=O)N[C@@H](c2ccc(F)cc2)C(=O)N[C@@H](c2ccccc2)C(=O)N1
remaining at […] [1]: 93%

Structure (SMILES): NC(=O)[C@@H]1CC(=O)NCCCC[C@@H](NC(=O)[C@@H](N)Cc2ccc(O)cc2)C(=O)N[C@@H](c2ccccc2)C(=O)N[C@@H](c2ccc(C(F)(F)F)cc2)C(=O)N1
remaining at […] [1]: 93%

Structure (SMILES): C=C(C(N)=O)[C@@H](NC(=O)[C@H](Cc1ccccc1)NC(=O)[C@@H](C)N(C)C(=O)[C@@H](N)Cc1ccc(O)cc1)c1ccco1
pEC50 [6]: 8.39 | pKi [7]: 9.35 | pKi [8]: 5.35 | Emax [9]: 87.7%

Structure (SMILES): C=C(C(N)=O)[C@@H](NC(=O)[C@H](Cc1c[nH]c2ccccc12)NC(=O)[C@@H](C)N(C)C(=O)[C@@H](N)Cc1ccc(O)cc1)c1ccco1
pEC50 [6]: 8.84 | pKi [7]: 9.52 | pKi [8]: 5.51 | Emax [9]: 90.6%

Structure (SMILES): C=C(C(N)=O)[C@@H](NC(=O)[C@H](Cc1ccccc1)NC(=O)[C@@H](C)N(C)C(=O)[C@@H](N)Cc1c(C)cc(O)cc1C)c1ccccc1
half-life [12]: ≥ 300 min | pEC50 [6]: 12.29 | pKi [7]: 10.29 | pKi [8]: 7.25 | Emax [9]: 95.1% | half-life [13]: ≥ 300 min

Structure (SMILES): Cc1cc(O)cc(C)c1C[C@H](N)C(=O)N[C@@H]1CCCCNC(=O)C[C@@H](C(N)=O)NC(=O)[C@H](c2ccccc2)NC(=O)[C@H](c2ccc(F)cc2)NC1=O
remaining at […] [1]: 93%

half-life [12]: ≥ 300 min | half-life [13]: ≥ 300 min
Structure (SMILES): C=C(C(=O)O)[C@@H](N)c1ccccc1

Structure (SMILES): Cc1cc(O)cc(C)c1C[C@H](N)C(=O)N[C@@H]1CCCCNC(=O)C[C@@H](C(N)=O)NC(=O)[C@H](c2ccc(F)cc2)NC(=O)[C@H](c2ccccc2)NC1=O
remaining at […] [1]: 93%

Structure (SMILES): Cc1cc(O)cc(C)c1C[C@H](N)C(=O)N[C@@H]1CCCCNC(=O)C[C@@H](C(N)=O)NC(=O)[C@H](c2ccccc2)NC(=O)[C@H](c2ccc(F)cc2F)NC1=O
remaining at […] [1]: 93%

half-life [12]: ≥ 300 min | half-life [13]: ≥ 300 min
Structure (SMILES): CN[C@H](C)C(=O)O

Structure (SMILES): Cc1cccc([C@@H]2NC(=O)[C@H](NC(=O)[C@@H](N)Cc3c(C)cc(O)cc3C)CCCCNC(=O)C[C@@H](C(N)=O)NC(=O)[C@H](c3ccccc3)NC2=O)c1
ED50 [2]: 0.22 µg | pIC50 [3]: 9.10 | pIC50 [4]: 6.94 | pEC50 [5]: 8.53 | remaining at […] [1]: 85%

Structure (SMILES): NC(=O)[C@@H]1CC(=O)NCCCC[C@@H](NC(=O)[C@@H](N)Cc2ccc(O)cc2)C(=O)N[C@@H](c2ccc(C(F)(F)F)cc2)C(=O)N[C@@H](c2ccccc2)C(=O)N1
remaining at […] [1]: 93%

Structure (SMILES): Cc1cc(O)cc(C)c1C[C@H](N)C(=O)N[C@@H]1CCCCNC(=O)C[C@@H](C(N)=O)NC(=O)[C@H](c2ccccc2)NC(=O)[C@H](c2ccccc2)NC1=O
ED50 [2]: 0.02 µg | pIC50 [3]: 9.59 | pIC50 [4]: 6.40 | pEC50 [5]: 8.76 | remaining at […] [1]: 85%

Structure (SMILES): Cc1cc(O)cc(C)c1C[C@H](N)C(=O)N[C@@H]1CCCCNC(=O)C[C@@H](C(N)=O)NC(=O)[C@H](c2ccc(F)cc2F)NC(=O)[C@H](c2ccccc2)NC1=O
remaining at […] [1]: 93%

Structure (SMILES): N[C@@H](Cc1ccc(O)cc1)C(=O)N[C@@H]1CCCCNC(=O)[C@H](Cc2ccccc2)NC(=O)[C@H](Cc2c[nH]c3ccccc23)NC1=O (H-Y[dK]WF; lactam 2-C)
pKi [14]: 9.60 | pKi [15]: 7.42

Structure (SMILES): C=C(C(N)=O)[C@@H](NC(=O)[C@H](Cc1ccccc1)NC(=O)[C@@H](C)N(C)C(=O)[C@@H](N)Cc1c(C)cc(O)cc1C)c1ccco1
half-life [12]: ≥ 300 min | pEC50 [6]: 11.70 | pKi [7]: 10.85 | pKi [8]: 7.33 | Emax [9]: 96.9% | half-life [13]: ≥ 300 min

Structure (SMILES): NC(=O)[C@@H]1CC(=O)NCCCC[C@@H](NC(=O)[C@@H](N)Cc2ccc(O)cc2)C(=O)N[C@@H](c2ccccc2)C(=O)N[C@@H](c2ccc(F)cc2)C(=O)N1
remaining at […] [1]: 93%

Structure (SMILES): Cc1cc(O)cc(C)c1C[C@H](N)C(=O)O
half-life [12]: ≥ 300 min | half-life [13]: ≥ 300 min

half-life [12]: ≥ 300 min | half-life [13]: ≥ 300 min
Structure (SMILES): C=C(C(=O)O)[C@@H](N)c1ccco1

Structure (SMILES): NC(=O)[C@@H]1CC(=O)NCCCC[C@@H](NC(=O)[C@@H](N)Cc2ccc(O)cc2)C(=O)N[C@@H](c2ccccc2)C(=O)N[C@@H](c2ccc(F)cc2F)C(=O)N1
remaining at […] [1]: 93%

Structure (SMILES): C=C(C(N)=O)[C@@H](NC(=O)[C@H](Cc1c[nH]c2ccccc12)NC(=O)[C@@H](C)N(C)C(=O)[C@@H](N)Cc1ccc(O)cc1)c1ccccc1
pEC50 [6]: 8.64 | pKi [7]: 9.24 | pKi [8]: 5.40 | Emax [9]: 88.3%

Structure (SMILES): Cc1ccc([C@@H]2NC(=O)[C@H](c3ccccc3)NC(=O)[C@H](NC(=O)[C@@H](N)Cc3c(C)cc(O)cc3C)CCCCNC(=O)C[C@@H](C(N)=O)NC2=O)cc1
ED50 [2]: 0.006 µg | pIC50 [3]: 10.70 | pIC50 [4]: 7.83 | pEC50 [5]: 8.11 | remaining at […] [1]: 85%

Structure (SMILES): Cc1cccc([C@@H]2NC(=O)[C@H](c3ccccc3)NC(=O)[C@H](NC(=O)[C@@H](N)Cc3c(C)cc(O)cc3C)CCCCNC(=O)C[C@@H](C(N)=O)NC2=O)c1
ED50 [2]: 0.01 µg | pIC50 [3]: 10.10 | pIC50 [4]: 7.73 | pEC50 [5]: 8.96 | remaining at […] [1]: 85%

Structure (SMILES): Cc1ccccc1[C@@H]1NC(=O)[C@H](c2ccccc2)NC(=O)[C@H](NC(=O)[C@@H](N)Cc2c(C)cc(O)cc2C)CCCCNC(=O)C[C@@H](C(N)=O)NC1=O
ED50 [2]: 0.05 µg | pIC50 [3]: 10.40 | pIC50 [4]: 8.69 | pEC50 [5]: 8.25 | remaining at […] [1]: 85%

Structure (SMILES): Cc1cc(O)cc(C)c1C[C@H](N)C(=O)N[C@@H]1CCCCNC(=O)C[C@@H](C(N)=O)NC(=O)[C@H](c2ccccc2)NC(=O)[C@H](c2ccc(C(F)(F)F)cc2)NC1=O
remaining at […] [1]: 93%
